Experimental data: patent publication US9469650B2, “Melampomagnolide B derivatives” (BOARD OF TRUSTEES OF THE UNIVERSITY OF ARKANSAS, priority 2013, dated 2016)

Key:
CCRF-CEM = test: panel of 60 human tumor cell lines, growth inhibition (Leukemia); settings: Homo sapiens; for GI50: NCI five dose; for CC50: read-out: LC50; for IC (TGI): read-out: TGI
SK-MEL-5 = test: panel of 60 human tumor cell lines, growth inhibition (Melanoma); settings: Homo sapiens; for GI50: SK-MEL-5; for CC50: SK-MEL-5, read-out: LC50; for IC (TGI): SK-MEL-5, read-out: TGI
UACC-257 = test: as above; settings: for GI50 / CC50: Homo sapiens; for GI50 / Percent Growth / TGI: UACC-257; for CC50: UACC-257, read-out: LC50; for TGI: NCI five dose
COLO 205 = test: panel of 60 human tumor cell lines, growth inhibition (Colon Cancer); settings: Homo sapiens; for GI50: COLO 205; for CC50: COLO 205, read-out: LC50
HCT-15 = test: as above; settings: Homo sapiens; for GI50: HCT-15; for CC50: HCT-15, read-out: LC50; for IC (TGI): HCT-15, read-out: TGI
RXF 393 = test: panel of 60 human tumor cell lines, growth inhibition (Renal Cancer); settings: Homo sapiens; for GI50: RXF 393, RXF 393, NCI five dose; for CC50: RXF 393, read-out: LC50; for IC (TGI): RXF 393, read-out: TGI
TK-10 = test: as above; settings: Homo sapiens; for GI50: TK-10, TK-10, NCI five dose; for CC50: TK-10, read-out: LC50; for IC (TGI): TK-10, read-out: TGI
MCF7 = test: panel of 60 human tumor cell lines, growth inhibition (Breast Cancer); settings: Homo sapiens; for GI50: MCF7, MCF7, NCI five dose; for CC50: MCF7, read-out: LC50; for IC (TGI): MCF7, read-out: TGI
BT-549 = test: as above; settings: Homo sapiens; for GI50: BT-549; for CC50: BT-549, read-out: LC50; for IC (TGI): BT-549, read-out: TGI
MDA-MB-468 = test: as above; settings: Homo sapiens; for GI50: MDA-MB-468; for CC50: MDA-MB-468, read-out: LC50; for IC (TGI): MDA-MB-468, read-out: TGI
IGROV1 = test: panel of 60 human tumor cell lines, growth inhibition (Ovarian Cancer); settings: Homo sapiens; for GI50: IGROV-1; for CC50: IGROV-1, read-out: LC50; for IC (TGI): IGROV-1, read-out: TGI
OVCAR-3 = test: as above; settings: for GI50 / CC50 / IC (TGI): Homo sapiens; for GI50 / Percent Growth: OVCAR-3; for CC50: OVCAR-3, read-out: LC50; for IC (TGI): OVCAR-3, read-out: TGI
OVCAR-8 = test: as above; settings: Homo sapiens; for GI50: OVCAR-8; for CC50: OVCAR-8, read-out: LC50; for IC (TGI): OVCAR-8, read-out: TGI
SK-OV-3 = test: as above; settings: Homo sapiens; for GI50: SK-OV-3; for CC50: SK-OV-3, read-out: LC50; for IC (TGI): SK-OV-3, read-out: TGI
A549/ATCC = test: panel of 60 human tumor cell lines, growth inhibition (Non-Small Cell Lung Cancer); settings: Homo sapiens; for GI50: A549; for CC50: A549, read-out: LC50; for IC (TGI): A549, read-out: TGI
HOP-92 = test: as above; settings: Homo sapiens; for GI50: HOP-92, HOP-92, NCI five dose; for CC50: HOP-92, read-out: LC50; for IC (TGI): HOP-92, read-out: TGI
NCI-H23 = test: as above; settings: Homo sapiens; for GI50: NCI-H23; for CC50: NCI-H23, read-out: LC50; for IC (TGI): NCI-H23, read-out: TGI
NCI-H522 = test: as above; settings: Homo sapiens; for GI50: NCI-H522; for CC50: NCI-H522, read-out: LC50; for IC (TGI): NCI-H522, read-out: TGI

For C=C1C(=O)O[C@H]2[C@H]1CC/C(COC(=O)OCCN(C)C)=C\CC[C@@]1(C)O[C@@H]21 [JVM 2-35], the GI50 (CCRF-CEM) was 2.1 µM, the CC50 (CCRF-CEM) was over 100 µM and the IC (TGI) (CCRF-CEM) was 6.14 µM. It also gave a GI50 (SK-MEL-5) of 11.5 µM, a CC50 (SK-MEL-5) of 53.8 µM and an IC (TGI) (SK-MEL-5) of 24.9 µM. The GI50 (UACC-257) was 10.2 µM, the CC50 (UACC-257) was 55.2 µM and the “Percent Growth” value (UACC-257; Log10 Concentration −4.0) was −85%. The “Percent Growth” value (UACC-257; Log10 Concentration −5.0) was 51%, the “Percent Growth” value (UACC-257; Log10 Concentration −6.0) was 92% and the “Percent Growth” value (UACC-257; Log10 Concentration −7.0) was 86%. For the same compound, the “Percent Growth” value (UACC-257; Log10 Concentration −8.0) was 93%, the TGI (UACC-257) was 2.38E−5 and the GI50 (COLO 205) was 2.19 µM. It also gave a CC50 (COLO 205) of 18.6 µM, an IC (TGI) (COLO 205; COLO 205, read-out: TGI) of 5.46 µM and a GI50 (HCT-15) of 2.78 µM. It also gave a CC50 (HCT-15) of 44.3 µM, an IC (TGI) (HCT-15) of 12.8 µM and a GI50 (RXF 393) of 3.23 µM. It also gave a CC50 (RXF 393) of 45.8 µM, an IC (TGI) (RXF 393) of 13.7 µM and a GI50 (TK-10) of 3.92 µM. For the same compound, the CC50 (TK-10) was 43.8 µM, the IC (TGI) (TK-10) was 15.1 µM and the GI50 (MCF7) was 2.92 µM. It also gave a CC50 (MCF7) of 56.3 µM, an IC (TGI) (MCF7) of 13 µM and a GI50 (BT-549) of 5.82 µM. It also gave a CC50 (BT-549) of 44.8 µM, an IC (TGI) (BT-549) of 19.5 µM and a GI50 (MDA-MB-468) of 1.46 µM. The CC50 (MDA-MB-468) was 50.4 µM, the IC (TGI) (MDA-MB-468) was 9.2 µM and the GI50 (IGROV1) was 17.7 µM. For the same compound, the CC50 (IGROV1) was over 100 µM, the IC (TGI) (IGROV1) was 44 µM and the GI50 (OVCAR-3) was 3.31 µM. For the same compound, the CC50 (OVCAR-3) was 35.3 µM, the IC (TGI) (OVCAR-3) was 11.5 µM and the “Percent Growth” value (OVCAR-3; Log10 Concentration −4.0) was −96%. For the same compound, the “Percent Growth” value (OVCAR-3; Log10 Concentration −5.0) was 6%, the “Percent Growth” value (OVCAR-3; Log10 Concentration −6.0) was 97% and the “Percent Growth” value (OVCAR-3; Log10 Concentration −7.0) was 106%. For the same compound, the “Percent Growth” value (OVCAR-3; Log10 Concentration −8.0) was 98%, the GI50 (OVCAR-8) was 13.5 µM and the CC50 (OVCAR-8) was 96 µM. It also gave an IC (TGI) (OVCAR-8) of 36 µM, a GI50 (SK-OV-3) of 27.5 µM and a CC50 (SK-OV-3) of over 100 µM. It also gave an IC (TGI) (SK-OV-3) of 83.3 µM, a GI50 (A549/ATCC) of 16.3 µM and a CC50 (A549/ATCC) of 71.6 µM. It also gave an IC (TGI) (A549/ATCC) of 34.2 µM, a GI50 (HOP-92) of 2.69 µM and a CC50 (HOP-92) of 35.8 µM. The IC (TGI) (HOP-92) was 10.1 µM, the GI50 (NCI-H23) was 16 µM and the CC50 (NCI-H23) was 91 µM. For the same compound, the IC (TGI) (NCI-H23) was 38.2 µM, the GI50 (NCI-H522) was 1.5 µM and the CC50 (NCI-H522) was 9.57 µM. For the same compound, the IC (TGI) (NCI-H522) was 3.79 µM.

C=C1C(=O)O[C@H]2[C@H]1CC/C(COC(=O)OC)=C\CC[C@@]1(C)O[C@@H]21 [JVM 2-40] showed a GI50 (CCRF-CEM) of 1.49 µM, a CC50 (CCRF-CEM) of 98 µM and an IC (TGI) (CCRF-CEM) of 6.04 µM. The GI50 (SK-MEL-5) was 7.58 µM, the CC50 (SK-MEL-5) was 50.6 µM and the IC (TGI) (SK-MEL-5) was 21.5 µM. For the same compound, the GI50 (UACC-257) was 4.98 µM, the CC50 (UACC-257) was 46.7 µM and the “Percent Growth” value (UACC-257; Log10 Concentration −4.0) was −92%. The “Percent Growth” value (UACC-257; Log10 Concentration −5.0) was 36%, the “Percent Growth” value (UACC-257; Log10 Concentration −6.0) was 82% and the “Percent Growth” value (UACC-257; Log10 Concentration −7.0) was 84%. The “Percent Growth” value (UACC-257; Log10 Concentration −8.0) was 90%, the TGI (UACC-257) was 1.90E−5 and the GI50 (COLO 205) was 2.25 µM. The CC50 (COLO 205) was 25 µM, the GI50 (HCT-15) was 1.96 µM and the CC50 (HCT-15) was 28.9 µM. For the same compound, the IC (TGI) (HCT-15) was 6.78 µM, the GI50 (RXF 393) was 1.68 µM and the CC50 (RXF 393) was 31.7 µM. For the same compound, the IC (TGI) (RXF 393) was 6.85 µM, the GI50 (TK-10) was 2.65 µM and the CC50 (TK-10) was 32.9 µM. For the same compound, the IC (TGI) (TK-10) was 10.8 µM, the GI50 (MCF7) was 2.28 µM and the CC50 (MCF7) was 49.8 µM. The IC (TGI) (MCF7) was 12.2 µM, the GI50 (BT-549) was 5.74 µM and the CC50 (BT-549) was 43.5 µM. For the same compound, the IC (TGI) (BT-549) was 18.7 µM, the GI50 (MDA-MB-468) was 0.574 µM and the CC50 (MDA-MB-468) was 19.2 µM. For the same compound, the IC (TGI) (MDA-MB-468) was 3.09 µM, the GI50 (IGROV1) was 16.6 µM and the CC50 (IGROV1) was 85.8 µM. It also gave an IC (TGI) (IGROV1) of 37.7 µM, a GI50 (OVCAR-3) of 2.63 µM and a CC50 (OVCAR-3) of 30.6 µM. For the same compound, the IC (TGI) (OVCAR-3) was 9.31 µM, the “Percent Growth” value (OVCAR-3; Log10 Concentration −4.0) was −100% and the “Percent Growth” value (OVCAR-3; Log10 Concentration −5.0) was −3%. The “Percent Growth” value (OVCAR-3; Log10 Concentration −6.0) was 88%, the “Percent Growth” value (OVCAR-3; Log10 Concentration −7.0) was 100% and the “Percent Growth” value (OVCAR-3; Log10 Concentration −8.0) was 99%. The GI50 (OVCAR-8) was 8.95 µM, the CC50 (OVCAR-8) was 65.6 µM and the IC (TGI) (OVCAR-8) was 24.7 µM. The GI50 (SK-OV-3) was 22.7 µM, the CC50 (SK-OV-3) was over 100 µM and the IC (TGI) (SK-OV-3) was 59.7 µM. It also gave a GI50 (A549/ATCC) of 13.3 µM, a CC50 (A549/ATCC) of 61.3 µM and an IC (TGI) (A549/ATCC) of 28.6 µM. It also gave a GI50 (HOP-92) of 2.33 µM, a CC50 (HOP-92) of 30.7 µM and an IC (TGI) (HOP-92) of 7.99 µM. The GI50 (NCI-H23) was 13 µM, the CC50 (NCI-H23) was 85.2 µM and the IC (TGI) (NCI-H23) was 33.3 µM. The GI50 (NCI-H522) was 1.07 µM, the CC50 (NCI-H522) was 5.82 µM and the IC (TGI) (NCI-H522) was 2.5 µM.
